One block for each compound: values may come before it.
Experiments:
[1] = tested on: DNA demethylation activity of porcine sperm nuclear extract; experiment: In vitro DNA demethylation by porcine sperm nuclear extract (restriction digestion-PCR assay); format: biochemical; conditions: for effect on the in vitro DNA demethylation activity of the sperm nuclear extract: 10 mM CaCl2, increasing concentrations of inhibitor (APE-i to 1 mM, 3-AB to 50 mM, THU to 1 mM)
Method: The nuclear extracts were prepared from the porcine sperms and 293T cells, respectively, by a modified method. Briefly, the porcine semen was washed three times by PBS buffer and the sperm pellet isolated with FICOLL®. The pellet was resuspended in a hypotonic buffer (10 mM Tris-HCl, pH7.4, 10 mM NaCl, 10 mM EDTA and EDTA-free protease inhibitors) on ice for 15 minutes. The resuspended sperms were passed through a G21 needle 10 times and then centrifuged at 13,200 rpm at 4° C. for 10 min. The supernatant was removed and the pellet of the nuclei was resuspended in a resuspension buffer (10 mM Tris-HCl, pH7.4, 10 mM NaCl, 1.5 mM, MgCl2 and EDTA-free protease inhibitors), and an equal volume of 1M NaCl was added for 30 min incubation on ice.

recombinant mouse DNMT3B = molecular target: T1, recombinant mouse DNMT3B (Mus musculus, UniProt O88509); experiment: Effect of Ca2+, DTT, SAM and H2O2 on the DNA demethylation activity of recombinant DNMT3B (hydrolysis-TLC assay); format: biochemical
T1 construct: purchased BPS Bioscience; host or cells: recombinant baculovirus-infected Sf9 insect cells
Method: M, mock control without incubation.
(§1) FIGS. 3A-B show the effects of a reducing condition and SAM on the DNA demethylation and methylation activities of DNMT3B. […] After incubation at 37° C. for 4 h, the DNA products were analyzed by the hydrolysis-TLC assay. The results are quantitatively presented in the histogram. […] After incubation at 37° C. for 4 h, the extents of C methylation of the DNAs from the different reactions were determined by hydrolysis-TLC assay and quantitatively compared in the histogram. Error bars indicate S.D.
Rx, reactions. […] M, mock control without incubation.

[2] = tested on: 5-mC-containing double-stranded DNA substrate; experiment: 5-mC to C conversion by 293T nuclear extracts with exogenously expressed mouse DNMTs (hydrolysis-TLC assay); format: biochemical; conditions: 293T nuclear extract with exogenously expressed mouse enzyme, buffer B, 10 mM Ca2+
recombinant DNMT3B = molecular target: T2, recombinant DNMT3B (Mus musculus, UniProt O88509); experiment: Effect of Ca2+ and DTT on the C to 5-mC methylation reaction of recombinant DNMT3B (hydrolysis-TLC assay); format: biochemical; conditions: 40 nM recombinant DNMT3B, unmethylated pMR1-8, 160 μM SAM, 1 mM CaCl2 or 5 mM DTT, 37°C, 4 h
T2 construct: purchased BPS Bioscience; host or cells: recombinant baculovirus-infected Sf9 insect cells
Method: as §1
Methylation in vitro of unmodified pMR1-8 plasmid DNA by the DNMTs were carried out and analyzed by the hydrolysis-TLC assay. When needed, 1 mM CaCl2 or 5 mM DTT was also included in the reaction mixture.

[3] = tested on: 5-mC-containing DNA substrate; experiment: 5-mC to C conversion by recombinant DNMTs (hydrolysis-TLC assay); conditions: 40 nM recombinant DNMT3B, 1 mM CaCl2, 37°C, 2 h (reaction 1)

Compound: O=C1NC(O)CCN1[C@@H]1O[C@H](CO)[C@@H](O)[C@H]1O (some centres unmarked) [tetrahydrouridine]
effect on the in vitro DNA demethylation activity of the sperm nuclear extract [1]: little effect

Compound: OO [H2O2]
effect on the enzyme activity of DNMT3B after SAM (in words) (recombinant mouse DNMT3B; 1 mM H2O2 added after reaction 2, another 2 h (reaction 3)): led to the switch of the enzyme activity of DNMT3B from methylation to demethylation again

Compound: DNMT1: mouse DNA methyltransferase 1 exogenously expressed in 293T nuclear extract (SEQ ID NO: 5)
5-mC residues on the DNA substrate from which the 5-methyl group was removed [2]: approximately 30%

C converted back to 5-mC (recombinant mouse DNMT3B; 160 μM SAM added after reaction 1, continued 1 h incubation (reaction 2)): more than 60%
Compound: C[S+](CC[C@H](N)C(=O)O)C[C@H]1O[C@@H](n2cnc3c(N)ncnc32)[C@H](O)[C@@H]1O (some centres unmarked) [SAM, S-adenosylmethionine]

effect on the 5-C methylation reaction of DNMTs (in words) (recombinant DNMT3B): nor was it affected
Compound: O[C@H](CS)[C@H](O)CS (racemic) [DTT, dithiothreitol]

effect on the 5-C methylation reaction of DNMTs (in words) (recombinant DNMT3B): did not require
Compound: [Ca+2].[Cl-].[Cl-] [Ca^2+, CaCl2]
reduction of the extent of DNA methylation ([1]; 1-10 mM Ca2+, fully methylated pMR1-8 plasmid, 37°C, 2 h): 20-50%

Compound: O=C(O)c1cc2cccc([N+](=O)[O-])c2[nH]1 [CRT0044876]
effect on the in vitro DNA demethylation activity of the sperm nuclear extract [1]: little effect

Compound: DNMT3B: mouse DNA methyltransferase 3B, expressed in 293T nuclear extract or recombinant from BPS Bioscience (SEQ ID NO: 9)
5-mC residues on the DNA substrate from which the 5-methyl group was removed [2]: approximately 30% | 5-mC on the DNA substrate demethylated at the end of the first reaction [3]: approximately 60%

Compound: NC(=O)c1cccc(N)c1 [3-aminobenzamide]
effect on the in vitro DNA demethylation activity of the sperm nuclear extract [1]: little effect

Reference: patent US9695463B2, “DNA 5-methyl cytosine demethylation activity of vertebrate DNA methyltransferases” (Academia Sinica, priority 2012, dated 2017)
